pIC50: −log10 of the molar value. Where two headings read alike, the source gives them in different places. Each block holds one compound with its values, some of them ahead of it.
System: AsPC-1 cells
Test: phospho-ERK HTRF assay in AsPC-1 cells, 4 h treatment
Format: cell-based
Settings: Homo sapiens, ASPC1
[1] = AsPC-1, 4H, Table 1a class column, read-out: pERK IC50 activity range (*)
[2] = AsPC-1, 4H, Table 1a, read-out: PERK IC50 (AsPC-1, 4H)
[3] = AsPC-1, 4h, Table 1b, read-out: PERK IC50 (AsPC-1, 4h)

Compound: Cc1cc(N)cc([C@@H]2Cc3nc(OC[C@@]45CCCN4C/C(=C\F)C5)nc(N4CCCn5nc(C(=O)N6CCC6)cc5C4)c3CO2)c1C(F)(F)F [compound 403]
pIC50 [1]: 7.52 to 8.00

Compound: CN1CCN(c2nc(OC[C@@]34CCCN3C[C@H](F)C4)nc3c2COC(c2c(C(F)(F)F)ccc(N)c2F)C3)CCC1=O (stereo partly shown) [compound 201]
pIC50 [1]: < 6.30 | pIC50 [2]: < 5.00

Compound: CN(C)C(=O)c1nn2c(c1Cl)CN(c1nc(OC[C@@]34CCCN3C[C@H](F)C4)nc3c1COC(c1nc(N)ccc1C(F)(F)F)C3)CCC2 (stereo partly drawn) [compound 217, 5-(7-(6-amino-3-(trifluoromethyl)pyridin-2-yl)-2-(((2R,7aS)-2-fluorotetrahydro-1H-pyrrolizin-7a(5H)-yl)methoxy)-7,8-dihydro-5H-pyrano[4,3-d]pyrimidin-4-yl)-3-chloro-N,N-dimethyl-5,6,7,8-tetrahydro-4H-pyrazolo[1,5-a][1,4]diazepine-2-carboxamide]
pIC50 [1]: 6.30 to 7.00 | pIC50 [2]: 6.51

Compound: Cc1c(C(=O)N(C)C)nn2c1CN(c1nc(OC[C@@]34CCCN3C/C(=C\F)C4)nc3c1CO[C@H](c1cc(N)cc(Cl)c1C(F)(F)F)C3)CCC2 [compound 300, 5-((S)-7-(5-amino-3-chloro-2-(trifluoromethyl)phenyl)-2-(((S,Z)-2-(fluoromethylene)tetrahydro-1H-pyrrolizin-7a(5H)-yl)methoxy)-7,8-dihydro-5H-pyrano[4,3-d]pyrimidin-4-yl)-N,N,3-trimethyl-5,6,7,8-tetrahydro-4H-pyrazolo[1,5-a][1,4]diazepine-2-carboxamide]
pIC50 [3]: > 8.00

Compound: CS(=O)(=O)c1nn2c(c1Cl)CN(c1nc(OC[C@@]34CCCN3C[C@H](F)C4)nc3c1CO[C@H](c1c(C(F)(F)F)ccc(N)c1F)C3)CCC2 [211a, 3-((S)-4-(3-Chloro-2-(methylsulfonyl)-7,8-dihydro-4H-pyrazolo[1,5-a][1,4]diazepin-5(6H)-yl)-2-(((2R,7aS)-2-fluorotetrahydro-1H-pyrrolizin-7a(5H)-yl)methoxy)-7,8-dihydro-5H-pyrano[4,3-d]pyrimidin-7-yl)-2-fluoro-4-(trifluoromethyl)aniline]
pIC50 [1]: 6.30 to 7.00 | pIC50 [2]: 6.90

Compound: CN(C)C(=O)c1nn2c(c1Cl)CN(c1nc(OC[C@@]34CCCN3C/C(=C\F)C4)nc3c1CO[C@H](c1c(F)c(N)cc(Cl)c1C(F)(F)F)C3)CCC2 [247a, 5-((S)-7-(3-amino-5-chloro-2-fluoro-6-(trifluoromethyl)phenyl)-2-(((S,Z)-2-(fluoromethylene)tetrahydro-1H-pyrrolizin-7a(5H)-yl)methoxy)-7,8-dihydro-5H-pyrano[4,3-d]pyrimidin-4-yl)-3-chloro-N,N-dimethyl-5,6,7,8-tetrahydro-4H-pyrazolo[1,5-a][1,4]diazepine-2-carboxamide]
pIC50 [3]: > 8.00

Compound: CN(C)C(=O)c1nn2c(c1Cl)CN(c1nc(OC[C@@]34CCCN3CC(=C(F)F)C4)nc3c1CO[C@H](c1cc(N)ccc1C(F)(F)F)C3)CCC2 [compound 244]
pIC50 [1]: 7.52 to 8.00 | pIC50 [2]: 7.65

Compound: CN(C)C(=O)c1nn2c(c1Cl)CN(c1nc(OC[C@@]34CCCN3C[C@H](F)C4)nc3c1COC(c1cc(N)cc(F)c1C(F)(F)F)C3)CCC2 (stereo partly shown) [compound 237]
pIC50 [1]: 7.52 to 8.00 | pIC50 [2]: 7.69

Compound: CN(C)C(=O)c1nn2c(c1Cl)CN(c1nc(OC[C@@]34CCCN3C/C(=C\F)C4)nc3c1COC(c1cc(N)cc(Cl)c1C1CC1)C3)CCC2 (stereo partly shown) [compound 438]
pIC50 [3]: > 8.00

Compound: Cc1cc(N)cc(C2Cc3nc(OC[C@@]45CCCN4CC(=C(F)F)C5)nc(N4CCCn5nc(C(=O)N(C)C)c(Cl)c5C4)c3CO2)c1C(F)(F)F (stereo partly shown) [compound 241]
pIC50 [1]: 7.00 to 7.51 | pIC50 [2]: 7.23

pIC50 [1]: 7.00 to 7.51 | pIC50 [2]: 7.49
Compound: CN(C)C(=O)c1nn2c(c1Cl)CN(c1nc(OC[C@@]34CCCN3CC(=C(F)F)C4)nc3c1CO[C@H](c1c(C(F)(F)F)ccc(N)c1F)C3)CCC2 [231a, 5-((S)-7-(3-amino-2-fluoro-6-(trifluoromethyl)phenyl)-2-(((S)-2-(difluoromethylene)tetrahydro-1H-pyrrolizin-7a(5H)-yl)methoxy)-7,8-dihydro-5H-pyrano[4,3-d]pyrimidin-4-yl)-3-chloro-N,N-dimethyl-5,6,7,8-tetrahydro-4H-pyrazolo[1,5-a][1,4]diazepine-2-carboxamide]

Compound: CN(C)C(=O)n1nc2c(c1Cl)CN(c1nc(OC[C@@]34CCCN3C[C@H](F)C4)nc3c1COC(c1c(C(F)(F)F)ccc(N)c1F)C3)CCC2 (stereo partly shown) [compound 226]
pIC50 [1]: < 6.30 | pIC50 [2]: 6.03

pIC50 [1]: 7.00 to 7.51 | pIC50 [2]: 7.25
Compound: CN(C)C(=O)c1nn2c(c1Cl)CN(c1nc(OCC34CCCN3CC(=C(F)F)C4)nc3c1COC(c1c(C(F)(F)F)ccc(N)c1F)C3)CCC2 (stereo not shown) [compound 231]

Compound: CN(C)C(=O)c1nn2c(c1Cl)CN(c1nc(OC[C@@]34CCCN3C[C@H](F)C4)nc3c1COC(c1c(C(F)(F)F)ccc(N)c1F)C3)CC1(COC1)C2 (stereo partly shown) [compound 222]
pIC50 [1]: < 6.30 | pIC50 [2]: < 5.00

Compound: CN(C)C(=N)c1nn2c(c1Cl)CN(c1nc(OC[C@@]34CCCN3C[C@H](F)C4)nc3c1CO[C@H](c1c(C(F)(F)F)ccc(N)c1F)C3)CCC2 [compound 221]
pIC50 [1]: < 6.30 | pIC50 [2]: < 5.00

Compound: CN(C)C(=O)c1nn2c(c1Cl)CN(c1nc(OC[C@@]34CCCN3C[C@H](F)C4)nc3c1COC(c1cc(N)ccc1C(F)(F)F)C3)CCC2 (stereo partly drawn) [compound 230, 5-(7-(5-amino-2-(trifluoromethyl)phenyl)-2-(((2R,7aS)-2-fluorotetrahydro-1H-pyrrolizin-7a(5H)-yl)methoxy)-7,8-dihydro-5H-pyrano[4,3-d]pyrimidin-4-yl)-3-chloro-N,N-dimethyl-5,6,7,8-tetrahydro-4H-pyrazolo[1,5-a][1,4]diazepine-2-carboxamide]
pIC50 [1]: 7.00 to 7.51 | pIC50 [2]: 7.43

Compound: CC#Cc1cc(N)cc([C@@H]2Cc3nc(OC[C@@]45CCCN4C/C(=C\F)C5)nc(N4CCCn5nc(C(=O)N6CCCC6)cc5C4)c3CO2)c1C(F)(F)F [compound 420]
pIC50 [3]: > 8.00

Compound: CN(C)C(=O)c1nn2c(c1Cl)CN(c1nc(OC[C@@]34CCCN3C[C@H](F)C4)nc3c1CO[C@H](c1c(F)c(N)cc(Cl)c1C(F)(F)F)C3)CCC2 [213a, 5-((S)-7-(3-amino-5-chloro-2-fluoro-6-(trifluoromethyl)phenyl)-2-(((2R,7aS)-2-fluorotetrahydro-1H-pyrrolizin-7a(5H)-yl)methoxy)-7,8-dihydro-5H-pyrano[4,3-d]pyrimidin-4-yl)-3-chloro-N,N-dimethyl-5,6,7,8-tetrahydro-4H-pyrazolo[1,5-a][1,4]diazepine-2-carboxamide]
pIC50 [3]: > 8.00

Compound: Nc1ccc(C(F)(F)F)c(C2Cc3nc(OC[C@@]45CCCN4C[C@H](F)C5)nc(N4CCNC5CS(=O)(=O)C[C@H]54)c3CO2)c1F (stereo partly shown) [compound 207]
pIC50 [1]: < 6.30 | pIC50 [2]: < 5.00

Compound: Cc1cc(N)cc([C@@H]2Cc3nc(OC[C@@]45CCCN4C/C(=C\F)C5)nc(N4CCCn5nc(C(=O)N(C)C)c(C)c5C4)c3CO2)c1C(F)(F)F [compound 415]
pIC50 [3]: > 8.00

Compound: CN(C)C(=O)c1nc2c(o1)CCCN(c1nc(OC[C@@]34CCCN3C[C@H](F)C4)nc3c1COC(c1c(C(F)(F)F)ccc(N)c1F)C3)C2 (stereo partly shown) [compound 208]
pIC50 [1]: < 6.30 | pIC50 [2]: 5.84

Compound: [2H]C([2H])([2H])N(C(=O)c1nn2c(c1Cl)CN(c1nc(OC[C@@]34CCCN3C[C@H](F)C4)nc3c1CO[C@@H](c1c(F)c(N)cc(Cl)c1C(F)(F)F)C3)CCC2)C([2H])([2H])[2H] [250b]
pIC50 [1]: 7.52 to 8.00

Compound: CC#Cc1cc(N)cc([C@@H]2Cc3nc(OC[C@@]45CCCN4C/C(=C\F)C5)nc(N4CCCn5nc(C(=O)N(C)C)c(C)c5C4)c3CO2)c1C(F)(F)F [compound 426]
pIC50 [3]: > 8.00

Compound: CC#Cc1cc(N)cc([C@@H]2Cc3nc(OC[C@@]45CCCN4C[C@H](F)C5)nc(N4CCCn5nc(C(=O)N(C)C)cc5C4)c3CO2)c1C(F)(F)F [compound 408]
pIC50 [1]: 7.52 to 8.00

Compound: CN(C)C(=S)c1nn2c(c1Cl)CN(c1nc(OC[C@@]34CCCN3C[C@H](F)C4)nc3c1CO[C@H](c1c(C(F)(F)F)ccc(N)c1F)C3)CCC2 [compound 223]
pIC50 [1]: 6.30 to 7.00 | pIC50 [2]: 6.83

Compound: CN(C)C(=O)c1cc2n(n1)CCCN(c1nc(OC[C@@]34CCCN3CC(=C(F)F)C4)nc3c1CO[C@H](c1cc(N)cc(Cl)c1C(F)(F)F)C3)C2 [compound 411]
pIC50 [3]: > 8.00

Compound: CC#Cc1cc(N)cc([C@@H]2Cc3nc(OC[C@@]45CCCN4C[C@H](F)C5)nc(N4CCCn5nc(C(=O)N(C)C)c(CC)c5C4)c3CO2)c1C(F)(F)F [compound 423]
pIC50 [3]: > 8.00

Compound: Cc1cc(N)cc([C@@H]2Cc3nc(OC[C@@]45CCCN4CC(=C(F)F)C5)nc(N4CCCn5nc(C(=O)N(C)C)c(C)c5C4)c3CO2)c1C(F)(F)F [compound 416]
pIC50 [3]: > 8.00

Compound: CN(C)C(=O)c1nn2c(c1Cl)CN(c1nc(OC[C@@]34CCCN3C[C@H](F)C4)nc3c1COC(c1cc(N)ccc1C(F)(F)F)C3)CCC2 (stereo in doubt) [230b, 5-((R)-7-(5-amino-2-(trifluoromethyl)phenyl)-2-(((2R,7aS)-2-fluorotetrahydro-1H-pyrrolizin-7a(5H)-yl)methoxy)-7,8-dihydro-5H-pyrano[4,3-d]pyrimidin-4-yl)-3-chloro-N,N-dimethyl-5,6,7,8-tetrahydro-4H-pyrazolo[1,5-a][1,4]diazepine-2-carboxamide]
pIC50 [1]: 7.00 to 7.51 | pIC50 [2]: 7.89

Compound: CN(C)C(=O)c1nn2c(c1Cl)CN(c1nc(OC[C@]34CCCN3C[C@@H](C=C(F)F)C4)nc3c1CO[C@H](c1cc(N)cc(Cl)c1C(F)(F)F)C3)CCC2 [compound 456]
pIC50 [3]: > 8.00

Compound: CN(C)C(=O)c1nn2c(c1Cl)CN(c1nc(OC[C@@]34CCCN3C[C@H](F)C4)nc3c1CO[C@H](c1c(C(F)(F)F)cc(F)c(N)c1F)C3)CCC2 [216a, 5-((S)-7-(3-amino-2,4-difluoro-6-(trifluoromethyl)phenyl)-2-(((2R,7aS)-2-fluorotetrahydro-1H-pyrrolizin-7a(5H)-yl)methoxy)-7,8-dihydro-5H-pyrano[4,3-d]pyrimidin-4-yl)-3-chloro-N,N-dimethyl-5,6,7,8-tetrahydro-4H-pyrazolo[1,5-a][1,4]diazepine-2-carboxamide]
pIC50 [1]: 7.00 to 7.51 | pIC50 [2]: 7.31

Compound: Cc1cc(N)cc([C@@H]2Cc3nc(OC[C@@]45CCCN4C[C@H](F)C5)nc(N4CCCn5nc(C(=O)N(C)C)c(C)c5C4)c3CO2)c1C(F)(F)F [compound 405]
pIC50 [1]: 7.52 to 8.00

Source: patent publication US20260224589A1 (priority 2023, published 2026)
